From US20050181376A1, “Antisense modulation of microsomal triglyceride transfer protein expression” (ISIS Pharmaceuticals, Inc., priority 2001, published 2005)
Strand notation (5' to 3'): a small letter for the sugar, then the base; units joined by * are phosphorothioate-linked, units joined directly phosphodiester-linked; [ ] holds rarer units or linkages, { } end groups; capitals alone tell only the bases. e = 2'-O-(2-methoxyethyl) (MOE); [5mC] = 5-methylcytosine; d = 2'-deoxy (DNA)

Test system: mouse microsomal triglyceride transfer protein mRNA
Assay: Antisense inhibition of mouse microsomal triglyceride transfer protein mRNA levels in primary hepatocytes, quantitative real-time PCR
Assay type: cell-based
Design: concentration or dose not given beside the values
Conditions: averages from two experiments
Protocol: Primary mouse hepatocytes were prepared from CD-1 mice purchased from Charles River Labs (Wilmington, Mass.) and were routinely cultured in Hepatocyte Attachment Media (Gibco) supplemented with 10% Fetal Bovine Serum (Gibco/Life Technologies, Gaithersburg, Md.), 250 nM dexamethasone (Sigma), and 10 nM bovine insulin (Sigma). Cells were seeded into 96-well plates (Falcon-Primaria #3872) at a density of 10000 cells/well for use in RT-PCR analysis.
Cells were harvested 16-24 hours after oligonucleotide treatment.
All cytidine residues are 5-methylcytidines. […] Data are averages from two experiments. If present, “N.D.” indicates “no data”.

Substance | % INHIB (inhibition of mouse microsomal triglyceride transfer protein mRNA levels)
144469 (eG*eA*eG*eT*eA*d[5mC]*dG*dT*dG*dA*dG*d[5mC]*dT*dT*dG*eT*eA*eT*eA*eG; antisense) [compound 144469] | 0%
144510 (eG*eG*eT*e[5mC]*eT*dT*d[5mC]*dT*d[5mC]*d[5mC]*dT*dG*dA*dA*dT*eA*eG*eG*eT*eT; antisense) [compound 144510] | 0%
CTCTGATGTCGTTGCTTGCA (all phosphorothioate, sugars by position and methylation of C not given here; 2'-MOE wings and deoxy gap) [ISIS 144485, 2′-MOE gapmer phosphorothioate antisense oligonucleotide to mouse MTP] | at least 30%
144491 (e[5mC]*eA*eG*e[5mC]*eA*dG*d[5mC]*dG*dG*d[5mC]*dA*dG*dT*dT*dG*eT*eG*e[5mC]*eG*e[5mC]; antisense) [compound 144491] | 26%
CTGCAATTAAGCCTTCCAGC (all phosphorothioate, sugars by position and methylation of C not given here; 2'-MOE wings and deoxy gap) [ISIS 144496, 2′-MOE gapmer phosphorothioate antisense oligonucleotide to mouse MTP] | at least 30%
144498 (eT*eG*eA*e[5mC]*eA*dT*dG*d[5mC]*d[5mC]*dA*dG*d[5mC]*dA*dT*dA*eA*eG*eA*eG*eT; antisense) [compound 144498] | 44%
CACCTGCCACTTGCTTCCCG (all phosphorothioate, sugars by position and methylation of C not given here; 2'-MOE wings and deoxy gap) [ISIS 144479, 2′-MOE gapmer phosphorothioate antisense oligonucleotide to mouse MTP] | at least 30%
144487 (e[5mC]*e[5mC]*e[5mC]*eA*eG*dG*dA*dT*d[5mC]*dA*dG*d[5mC]*dT*dT*d[5mC]*eT*eT*eA*eG*e[5mC]; antisense) [compound 144487] | 19%
144474 (eT*eA*eG*eA*eA*d[5mC]*dT*d[5mC]*d[5mC]*dT*dT*dG*dA*d[5mC]*d[5mC]*eT*eT*e[5mC]*e[5mC]*e[5mC]; antisense) [compound 144474] | 16%
144501 (eG*eA*e[5mC]*e[5mC]*eA*d[5mC]*d[5mC]*d[5mC]*dT*dG*dG*dA*dT*d[5mC]*dT*e[5mC]*e[5mC]*eA*eT*eA; antisense) [compound 144501] | 52%
GTGGCTGACGGGCCCTTCTC (all phosphorothioate, sugars by position and methylation of C not given here; 2'-MOE wings and deoxy gap) [ISIS 144489, 2′-MOE gapmer phosphorothioate antisense oligonucleotide to mouse MTP] | at least 30%
144507 (eT*e[5mC]*eT*e[5mC]*eA*dG*dA*dG*dT*dT*d[5mC]*dT*dG*dT*dT*eG*eA*eT*eG*eG; antisense) [compound 144507] | 0%
144508 (e[5mC]*eG*eT*e[5mC]*eA*dT*dA*dG*d[5mC]*dA*dT*dA*dT*d[5mC]*dG*eT*eT*e[5mC]*eT*eG; antisense) [compound 144508] | 0%
144476 (e[5mC]*e[5mC]*e[5mC]*eA*eG*dA*dG*dA*dT*dA*dT*d[5mC]*dT*dA*d[5mC]*e[5mC]*eT*e[5mC]*eG*eT; antisense) [compound 144476] | 19%
144506 (e[5mC]*eA*e[5mC]*eA*eT*d[5mC]*d[5mC]*dG*dG*d[5mC]*d[5mC]*dA*d[5mC]*dT*dA*eG*eG*e[5mC]*eT*e[5mC]; antisense) [compound 144506] | 0%
144483 (e[5mC]*eA*eG*eA*eG*dG*dT*dG*dA*d[5mC]*dG*dG*d[5mC]*dA*dT*e[5mC]*e[5mC]*eA*e[5mC]*e[5mC]; antisense) [compound 144483] | 22%
144477 (e[5mC]*e[5mC]*e[5mC]*eA*eG*d[5mC]*dA*d[5mC]*d[5mC]*dT*dG*dG*dT*dT*dT*eG*e[5mC]*e[5mC]*eG*eT; antisense) [compound 144477] | 94%

Substance | % INHIB (inhibition of mouse microsomal triglyceride transfer protein mRNA levels)
TGCACAACGGTGAGCATGTA (all phosphorothioate, sugars by position and methylation of C not given here; 2'-MOE wings and deoxy gap) [ISIS 144492, 2′-MOE gapmer phosphorothioate antisense oligonucleotide to mouse MTP] | at least 30%
144492 (eT*eG*e[5mC]*eA*e[5mC]*dA*dA*d[5mC]*dG*dG*dT*dG*dA*dG*d[5mC]*eA*eT*eG*eT*eA; antisense) [compound 144492] | 39%
144467 (eG*e[5mC]*eT*e[5mC]*e[5mC]*d[5mC]*dT*d[5mC]*dT*dG*d[5mC]*d[5mC]*dA*d[5mC]*dA*eT*e[5mC]*e[5mC]*eA*eG; antisense) [compound 144467] | 0%
144495 (e[5mC]*eA*eG*eA*eA*dT*dG*d[5mC]*d[5mC]*dA*dG*dA*dG*d[5mC]*d[5mC]*eA*eG*eA*eG*eT; antisense) [compound 144495] | 42%
144480 (eG*e[5mC]*eT*e[5mC]*eG*dA*dG*dG*dA*d[5mC]*d[5mC]*dT*dG*dT*d[5mC]*e[5mC]*e[5mC]*eA*e[5mC]*eA; antisense) [compound 144480] | 51%
144493 (eG*e[5mC]*e[5mC]*eA*eG*dT*dA*dT*dA*dG*dG*d[5mC]*dA*dG*dA*eA*eG*eA*eG*eG; antisense) [compound 144493] | 24%
CCCTTTCACCACGCTGACAG (all phosphorothioate, sugars by position and methylation of C not given here; 2'-MOE wings and deoxy gap) [ISIS 144500, 2′-MOE gapmer phosphorothioate antisense oligonucleotide to mouse MTP] | at least 30%
GACCACCCTGGATCTCCATA (all phosphorothioate, sugars by position and methylation of C not given here; 2'-MOE wings and deoxy gap) [ISIS 144501, 2′-MOE gapmer phosphorothioate antisense oligonucleotide to mouse MTP] | at least 30%
CAGAATGCCAGAGCCAGAGT (all phosphorothioate, sugars by position and methylation of C not given here; 2'-MOE wings and deoxy gap) [ISIS 144495, 2′-MOE gapmer phosphorothioate antisense oligonucleotide to mouse MTP] | at least 30%
144484 (e[5mC]*e[5mC]*eT*eG*eG*dA*dG*dT*dA*dT*dG*dA*dT*dA*d[5mC]*eT*eG*e[5mC]*eT*eG; antisense) [compound 144484] | 48%
144481 (eT*eT*e[5mC]*e[5mC]*eA*dG*dT*dG*d[5mC]*dT*d[5mC]*d[5mC]*dG*d[5mC]*d[5mC]*eA*eG*eA*eG*eA; antisense) [compound 144481] | 33%
144485 (e[5mC]*eT*e[5mC]*eT*eG*dA*dT*dG*dT*d[5mC]*dG*dT*dT*dG*d[5mC]*eT*eT*eG*e[5mC]*eA; antisense) [compound 144485] | 50%
144472 (eG*e[5mC]*e[5mC]*e[5mC]*eT*dG*dG*dA*dA*dG*dA*dT*dG*d[5mC]*dT*e[5mC]*eT*eT*e[5mC]*eT; antisense) [compound 144472] | 0%
GTTATCACCACAGCCACCCG (all phosphorothioate, sugars by position and methylation of C not given here; 2'-MOE wings and deoxy gap) [ISIS 144503, 2′-MOE gapmer phosphorothioate antisense oligonucleotide to mouse MTP] | at least 30%
144473 (eG*e[5mC]*e[5mC]*eT*e[5mC]*d[5mC]*dA*dG*dG*dT*dT*dG*dT*d[5mC]*d[5mC]*eT*eT*e[5mC]*e[5mC]*e[5mC]; antisense) [compound 144473] | 1%
144499 (e[5mC]*eG*e[5mC]*eT*eG*dA*d[5mC]*dA*dG*dG*dG*dT*d[5mC]*dG*d[5mC]*e[5mC]*eG*eG*eA*eT; antisense) [compound 144499] | 38%
TTCCAGTGCTCCGCCAGAGA (all phosphorothioate, sugars by position and methylation of C not given here; 2'-MOE wings and deoxy gap) [ISIS 144481, 2′-MOE gapmer phosphorothioate antisense oligonucleotide to mouse MTP] | at least 30%
